{"source": "paper PMC3579193", "about": "“Elucidation of relaxin-3 binding interactions in the extracellular loops of RXFP3” (Frontiers in Endocrinology, 2013)", "key": {"[1]": {"target": "T1, HA-RXFP3 245A (Homo sapiens, UniProt Q9NSD7, E245A)", "T1 construct": "expressed in transfected cells; host or cells: HEK-293T", "T1 sequence (Q9NSD7 2-469 E245A limits assumed)": "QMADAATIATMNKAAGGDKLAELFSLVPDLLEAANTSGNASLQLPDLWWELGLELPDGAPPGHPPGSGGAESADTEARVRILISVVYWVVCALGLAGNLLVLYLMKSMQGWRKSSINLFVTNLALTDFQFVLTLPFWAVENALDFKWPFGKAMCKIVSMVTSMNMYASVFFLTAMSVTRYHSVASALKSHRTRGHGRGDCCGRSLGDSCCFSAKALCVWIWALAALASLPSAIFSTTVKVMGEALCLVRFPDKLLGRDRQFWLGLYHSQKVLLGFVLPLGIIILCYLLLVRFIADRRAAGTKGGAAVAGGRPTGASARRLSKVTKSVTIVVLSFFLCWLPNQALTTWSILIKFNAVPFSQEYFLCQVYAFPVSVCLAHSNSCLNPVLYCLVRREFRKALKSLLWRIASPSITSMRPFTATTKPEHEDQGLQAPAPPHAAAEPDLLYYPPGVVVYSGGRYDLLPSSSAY", "experiment": "Competition binding with Eu-H3/I5, HA-RXFP3 E245A", "description": "(§1) PCR reactions and cloning were undertaken as previously described ([Scott et al., 2006], [2012]).\n(§2) The same protocol was used to prepare DNA templates of all Glu/Asp to Ala mutants, entailing a single codon change except for D47A/E51A, E55A/D58A, and E141A/D145A which required a double codon change both to Ala. The forward and reverse primers for all mutants are listed in Table 1 and mutagenesis reactions on pcDNA3.1zeo (+)-HA-RXFP3 were performed as previously described ([Scott et al., 2006]; [Yan et al., 2008]). […]\n(§3) HEK-293T cells were transfected in 96 well optiplates (Perkin Elmer) with plasmids encoding the constructs of interest and Eu-H3/I5 binding assays conducted as described previously ([Luo et al., 2010]; [Haugaard-Kedstrom et al., 2011]). […] Binding data are expressed as mean ± standard error of mean (SEM) of % specific binding of triplicate measurements pooled from at least three independent experiments. Data were analyzed using Graphpad PRISM (Graphpad Inc.) and a non-linear regression one-site binding model was used to plot curves and calculate pIC50 values. […] The HA epitope was detected using a purified mouse monoclonal anti-HA antibody [HA.11(16B12), Covance] and a Alexafluor488-labeled goat anti mouse IgG (Invitrogen) in cell surface expression assays that were performed in 24 well plates as previously described ([Yan et al., 2008]). […]"}, "[2]": {"target": "T2, HA-RXFP3 E77A (Homo sapiens, UniProt Q9NSD7, E77A)", "T2 construct": "expressed in transfected cells; host or cells: HEK-293T", "T2 sequence (Q9NSD7 2-469 E77A limits assumed)": "T1 sequence (Q9NSD7 2-469 E245A limits assumed) with E76A, A244E", "experiment": "Competition binding with Eu-H3/I5, HA-RXFP3 E77A", "description": "as §1, §2, §3"}, "[3]": {"test_system": "RXFP4", "conditions": "ref Liu et al., 2003a; cited from earlier work", "text": "Relaxin-3 is a member of the relaxin peptide family. Peptides from this family activate relaxin family peptide (RXFP) receptors, which are Type I or Class A G protein-coupled receptors (GPCRs). […] The rela ... || Based on the hypothesis that coevolution of relaxin-3 and RXFP3 occurred in vertebrates and that residues important for relaxin-3 binding and activation should therefore be conserved we performed multiple sequence alignments of all vertebrate RXFP3 sequences. […] Figure 1A highlights sequence alignments of representative mammalian species (human, chimpanzee, rat, mouse, platypus) and representative lower vertebrate species (Frog and Zebrafish) from this analysis compa ... || Based on the hypothesis that coevolution of relaxin-3 and RXFP3 occurred in vertebrates, and in the knowledge that the key relaxin-3 B-chain residues are conserved across all vertebrate species ([Wilkinson et al., 2005b]), we performed multiple sequence alignments of all vertebrate RXFP3 sequences to identify highly conserved residues in the ELs and NT domain that may be involved in relaxin-3 binding. […] We have focused on glutamic (E) and aspartic acid (D) residues ..."}, "[4]": {"target": "T3, HA-RXFP3 (Homo sapiens, UniProt Q9NSD7)", "T3 construct": "expressed in transfected cells; host or cells: HEK-293T", "T3 sequence (Q9NSD7 2-469 limits assumed)": "T1 sequence (Q9NSD7 2-469 E245A limits assumed) with A244E", "experiment": "Competition binding with Eu-H3/I5, HA-RXFP3", "conditions": "HA-RXFP3 vs wild-type RXFP3, competition binding", "method": "HEK-293T cells were transfected in 96 well optiplates (Perkin Elmer) with plasmids encoding the constructs of interest and Eu-H3/I5 binding assays conducted as described previously ([Luo et al., 2010]; [Haugaard-Kedstrom et al., 2011]). […] Binding data are expressed as mean ± standard error of mean (SEM) of % specific binding of triplicate measurements pooled from at least three independent experiments. Data were analyzed using Graphpad PRISM (Graphpad Inc.) and a non-linear regression one-site binding model was used to plot curves and calculate pIC50 values. All the RXFP3 constructs used in this study contained an N-terminal HA epitope. The HA epitope was detected using a purified mouse monoclonal anti-HA antibody [HA.11(16B12), Covance] and a Alexafluor488-labeled goat anti mouse IgG (Invitrogen) in cell surface expression assays that were performed in 24 well plates as previously described ([Yan et al., 2008]). […] Specific binding data for RXFP3 mutants was expressed as mean ± SEM of % specific binding/%HA-RXFP3 cell surface expression of triplicate measurements pooled from at least three independent experiments. Pooled data were analyzed using one-way ANOVA coupled to Newman–Keuls multiple comparison test for multiple group comparison."}}, "note": "Where a chain is given by its changes, count along the chain named. pIC50: −log10 of the molar value. Entries after “also recorded” stand apart in the source; their conditions may differ."}
{"smiles": "CC[C@H](C)[C@@H]1NC(=O)[C@H](Cc2ccccc2)NC(=O)[C@H](CCC(=O)O)NC(=O)[C@H](CCCNC(=N)N)NC(=O)CNC(=O)[C@@H](NC(=O)[C@H](CC(C)C)NC(=O)[C@H](CCCNC(=N)N)NC(=O)[C@@H](NC(=O)CNC(=O)[C@H](Cc2ccc(O)cc2)NC(=O)[C@@H]2CCCN2C(=O)[C@H](C)NC(=O)[C@H](C)NC(=O)[C@@H](N)CCCNC(=N)N)C(C)C)CSSC[C@@H]2NC(=O)[C@@H](NC(=O)[C@H](CO)NC(=O)[C@H](CO)NC(=O)[C@H](CO)NC(=O)[C@H](CC(C)C)NC(=O)CNC(=O)[C@H](C)NC(=O)[C@H](CC(C)C)NC(=O)[C@@H](NC(=O)[C@@H](N)CC(=O)O)C(C)C)CSSC[C@H](NC(=O)CNC(=O)[C@H](Cc3c[nH]c4ccccc34)NC(=O)[C@H](CCCCN)NC2=O)C(=O)N[C@@H](CO)C(=O)N[C@@H](CCCCN)C(=O)N[C@@H](CO)C(=O)N[C@@H](CCC(=O)O)C(=O)N[C@@H]([C@@H](C)CC)C(=O)N[C@@H](CO)C(=O)N[C@@H](CO)C(=O)N[C@@H](CC(C)C)C(=O)N[C@H](C(=O)O)CSSC[C@@H](C(=O)NCC(=O)NCC(=O)N[C@@H](CO)C(=O)N[C@@H](CCCNC(=N)N)C(=O)N[C@@H](Cc2c[nH]c3ccccc23)C(=O)O)NC(=O)[C@H]([C@@H](C)O)NC(=O)[C@H](Cc2ccccc2)NC(=O)[C@H]([C@@H](C)CC)NC(=O)[C@H](C(C)C)NC(=O)[C@H](C)NC(=O)[C@H](CCCNC(=N)N)NC1=O", "note": "[H3 relaxin]", "values": [{"measurement": "pIC50", "setting": "[1]", "value": 7.35}, {"measurement": "affinity compared with HA-RXFP3", "setting": "[1]; competition binding, p > 0.05", "value": "slightly lower H3 relaxin binding affinity but this was not significantly different from HA-RXFP3; also recorded: no significant difference in H3 relaxin affinity; also recorded: did not show a significant drop in binding"}, {"measurement": "pIC50", "setting": "[2]", "value": 7.50}, {"measurement": "affinity compared with HA-RXFP3", "setting": "[2]; competition binding, p > 0.05", "value": "slightly lower H3 relaxin binding affinity but this was not significantly different from HA-RXFP3; also recorded: no significant difference in H3 relaxin affinity; also recorded: did not show a significant drop in binding"}, {"measurement": "binding to and activation of RXFP4", "setting": "[3]", "value": "binds to and activates human RXFP4"}, {"measurement": "binding affinity compared with wild-type RXFP3", "setting": "[4]", "value": "no difference in the binding affinity"}]}
